Measurements taken from PubChem BioAssay AID1552 (Sanford-Burnham Center for Chemical Genomics, 2009).
The source made the active and inactive calls. How the calls were made is not given here.

The molecules below were run against Ubiquitin-conjugating enzyme E2 N (Homo sapiens) (UniProt P61088) (assay: UBE2N binders by NMR, biophysical, purified protein (AID 1552)). Conditions: NMR binding to purified UBE2N.
Chain of Ubiquitin-conjugating enzyme E2 N (Homo sapiens) (P61088 whole entry, looked up): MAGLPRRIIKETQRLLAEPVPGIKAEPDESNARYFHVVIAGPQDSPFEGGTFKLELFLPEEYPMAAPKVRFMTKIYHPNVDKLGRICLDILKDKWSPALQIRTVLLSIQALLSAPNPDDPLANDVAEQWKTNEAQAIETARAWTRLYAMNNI

Row | Compound | Kd
1 | Cc1ccc(C(O)c2nccn2C)o1 (stereo not drawn) | > 4 mM (inactive)
2 | Nc1cccc2cccnc12 | > 4 mM (inactive)
3 | CCOc1cc(S(=O)(=O)n2nc(C)cc2C)ccc1F | > 4 mM (inactive)
4 | NC(=O)C1CCN(C(=S)c2ccccc2)CC1 | > 4 mM (inactive)
5 | OCc1csc(-c2cccs2)n1 | > 4 mM (inactive)
6 | COc1cc(/C=C/C(=O)O)ccc1O | > 4 mM (inactive)
7 | O=c1ccc2ccc(O)cc2o1 | > 4 mM (inactive)
8 | O=C(NN1C(=O)C2C3C=CC(C3)C2C1=O)C1CC=CCC1 (stereo not drawn) | > 4 mM (inactive)
9 | NS(=O)(=O)c1ccc(N=Cc2ccc[nH]2)cc1 | > 4 mM (inactive)
10 | O=C1CCCc2c(O)cccc21 | > 4 mM (inactive)
11 | O=C(O)/C=C(\CC(=O)O)C(=O)O | > 4 mM (inactive)
12 | CNC(=O)CC1Sc2ccccc2NC1=O (stereo not drawn) | > 4 mM (inactive)
13 | Nc1cccc(S(=O)(=O)N2CCOCC2)c1 | > 4 mM (inactive)
14 | C[C@H]1[C@H](C)CC[C@]2(CO)CC[C@]3(C)C(=CCC4[C@@]5(C)CC[C@H](O)C(C)(C)C5CC[C@]43C)[C@H]12 (stereo partly drawn) | > 4 mM (inactive)
15 | Cc1cccc(-n2c(N)cc(=O)[nH]c2=S)c1C | > 4 mM (inactive)
16 | CNC(C)[C@H](O)c1ccccc1 (stereo partly drawn) | > 4 mM (inactive)
17 | Cc1nnc(N2CCN(Cc3ccccc3)CC2)[nH]c1=O | > 4 mM (inactive)
18 | Cc1cc(CN2C(=O)c3ccccc3C2=O)on1 | > 4 mM (inactive)
19 | O=C(Nc1ccon1)c1cccc(C(F)(F)F)c1 | > 4 mM (inactive)
20 | COc1ccc(Cc2nccc3cc(OC)c(OC)cc23)cc1OC | > 4 mM (inactive)
21 | Cc1cccc(NC(=O)Nc2cc(C)on2)c1 | > 4 mM (inactive)
22 | O=C1CN(C(=O)c2ccccc2F)c2ccccc2N1 | > 4 mM (inactive)

Row | Compound | Kd
23 | CC[C@H](CCC(C)[C@H]1CCC2C3CCC4C[C@@H](O)CC[C@]4(C)C3CC[C@@]21C)C(C)C (stereo partly drawn) | > 4 mM (inactive)
24 | COc1ccc2[nH]cc(CCNC(C)=O)c2c1 | > 4 mM (inactive)
25 | CN1CCN(C(=O)c2cc(-c3ccccc3)on2)CC1 | > 4 mM (inactive)
26 | Cc1cc(C(F)(F)F)n2nc(C(=O)O)c(Cl)c2n1 | > 4 mM (inactive)
27 | CC(=O)CNc1cc(CNC(C)=O)c(C)cc1C | > 4 mM (inactive)
28 | O=C(O)CNc1ncnc2nc[nH]c12 | > 4 mM (inactive)
29 | O=C1NC(=Nc2ccccc2)S/C1=C/c1cccnc1 | > 4 mM (inactive)
30 | CS(=O)(=O)c1ccccc1C(=O)Nc1nccs1 | > 4 mM (inactive)
31 | CC(=O)c1ccc(CC2SC(N)=NC2=O)cc1 (stereo not drawn) | > 4 mM (inactive)
32 | O=C(Nc1nnc(-c2ccco2)o1)C1=COCCO1 | > 4 mM (inactive)
33 | CNC(=S)N1CCN=C1Nc1nc(C)cc(C)n1 | > 4 mM (inactive)
34 | COCc1cc(Cl)nc(-c2csc(C)n2)n1 | > 4 mM (inactive)
35 | NC1=NC(=O)/C(=C\c2cccnc2)S1 | > 4 mM (inactive)
36 | CCOC(=O)c1c(C)nc2ccccn12 | > 4 mM (inactive)
37 | O=C(O)c1cc(=O)c2cccc(O)c2[nH]1 | > 4 mM (inactive)
38 | CSCCNC(C)=O | > 4 mM (inactive)
39 | O=C(O)c1cn(-c2ccccc2)nc1-c1cccnc1 | > 4 mM (inactive)
40 | Nc1csc(C(=O)O)c1 | > 4 mM (inactive)
41 | CC(=O)O[C@H]1C[C@@H](OC(C)=O)C(C)(C)C2C[C@@H](OC(C)=O)[C@@]3(C)C4=CC(=O)O[C@@H](c5ccoc5)[C@]4(C)CCC3[C@]21C (stereo partly drawn) | > 4 mM (inactive)
42 | O=C1CSC(=Nc2ccccc2[N+](=O)[O-])N1 | > 4 mM (inactive)
43 | CC1=C(/C=C/C(C)=C/C=C/C(C)=C/CO)C(C)(C)CCC1 | > 4 mM (inactive)
44 | N#Cc1ccccc1CSc1ccccn1 | > 4 mM (inactive)

Row | Compound | Kd
45 | CN(C)c1nc(N2CCOCC2)c2cnn(C)c2n1 | > 4 mM (inactive)
46 | Cc1nn(-c2ccccc2)nc1CO | > 4 mM (inactive)
47 | [O-][n+]1onc2c1CCc1c-2nn(-c2ccccc2)[n+]1[O-] | > 4 mM (inactive)
48 | O=C1CCN(c2ccccc2)N1 | > 4 mM (inactive)
49 | Cc1nnc2n(c1=O)N=C(c1ccccc1)CS2 | > 4 mM (inactive)
50 | CC(=O)N/N=C(\C)c1cccc(N)c1 | > 4 mM (inactive)
51 | COc1ccc(C)cc1S(N)(=O)=O | > 4 mM (inactive)
52 | O=c1oc2ccccc2cc1O | > 4 mM (inactive)
53 | C[n+]1cccc(C(=O)[O-])c1 | > 4 mM (inactive)
54 | O=C(CN1C(=O)CCC1=O)c1ccccc1 | > 4 mM (inactive)
55 | CC(=O)Nc1sccc1C(=O)NC(N)=O | > 4 mM (inactive)
56 | O=C(O)CC1Sc2ccccc2NC1=O (stereo not drawn) | > 4 mM (inactive)
57 | CSc1ccccc1NC(=O)c1c(C)noc1C | > 4 mM (inactive)
58 | c1ccc2[nH]c(SCc3cscn3)nc2c1 | > 4 mM (inactive)
59 | CSc1nnc(-c2ccccc2NC(C)=O)o1 | > 4 mM (inactive)
60 | CCC(C)C(=O)c1c(O)c(C)c2oc3c(C)c(O)c(C(=O)C(C)CC)c(O)c3c2c1O (stereo not drawn) | > 4 mM (inactive)
61 | O=C1Nc2ccccc2C1C1(O)C(=O)Nc2ccc(F)cc21 (stereo not drawn) | > 4 mM (inactive)
62 | CC(=O)Oc1c(-c2ccccc2)oc2c(CC=C(C)C)c3c(c(OC(C)=O)c2c1=O)C=CC(C)(C)O3 | > 4 mM (inactive)
63 | Cc1c(CCO)c(=O)n2c([nH]c3ccccc32)c1C#N | > 4 mM (inactive)
64 | Oc1ccc2nonc2c1 | > 4 mM (inactive)
65 | O=C(O)CCc1c[nH]c2ccccc12 | > 4 mM (inactive)
66 | O=C(N1CCOCC1)N1CCN(c2ccccn2)CC1 | > 4 mM (inactive)

Row | Compound | Kd
67 | O=[n+]1c(CO)c(CO)n([O-])c2ccccc21 | > 4 mM (inactive)
68 | O=c1cnnc(Nc2ccc(O)cc2)[nH]1 | > 4 mM (inactive)
69 | CNC(=O)n1ccc(C(=O)N2CCCCC2)n1 | > 4 mM (inactive)
70 | O=C(Nc1ccon1)c1sc2cc(F)ccc2c1Cl | > 4 mM (inactive)
71 | S=c1ccc(N2CCCCC2)n[nH]1 | > 4 mM (inactive)
72 | Cc1ccc(-c2nc(-c3cccnc3)no2)c(C)c1 | > 4 mM (inactive)
73 | CN(C)Cc1c(N)cccc1O | > 4 mM (inactive)
74 | CC(=O)c1cc2c(cc1O)OC(C)(C)C=C2 | > 4 mM (inactive)
75 | O=c1/c(=C/c2ccccc2F)sc2ncnn12 | > 4 mM (inactive)
76 | CNC(=O)Nc1ccc(C(=O)NC)cc1 | > 4 mM (inactive)
77 | N/N=C1\CCCc2c1no[n+]2[O-] | > 4 mM (inactive)
78 | O=C(Nc1nc2c(s1)CCCC2)c1cccnc1 | > 4 mM (inactive)
79 | Oc1ccc([C@H]2Oc3cc(O)cc(O)c3C[C@H]2O)cc1 | > 4 mM (inactive)
80 | c1ccc2c(c1)[nH]c1cnccc12 | > 4 mM (inactive)
81 | N#C/C(=C\c1ccc[nH]1)S(=O)(=O)c1ccccc1 | > 4 mM (inactive)
82 | Cc1ccc(CO)o1 | > 4 mM (inactive)
83 | COc1ccc2c(c1OC)C(=O)N(c1ncn[nH]1)C2 | > 4 mM (inactive)
84 | Nc1[nH]c(=S)ncc1S(=O)(=O)c1ccccc1 | > 4 mM (inactive)
85 | CC(=O)Nc1ccc(S(=O)(=O)Nc2cc(C)on2)cc1 | > 4 mM (inactive)
86 | CN1CCC(N(C)C2CCN(C)CC2)CC1 | > 4 mM (inactive)
87 | [O-][n+]1c2ccccc2[n+]([O-])c2cc(O)ccc21 | > 4 mM (inactive)
88 | O=C1NC2NC(=O)N(c3ccccc3)C2N1 (stereo not drawn) | > 4 mM (inactive)
